Literature values in patent publication US10293012B2 (priority 2017, dated 2019).

Test system: HSV1

Substance: heparin [Soluble heparin]
- inhibition of HSV1 infection: competitively inhibit
